Earlier results in US8455667B2, “Duloxetine compositions in the form of a powder for suspension in a liquid” (priority 2005, dated 2013).

Legend:
adrenergic receptors = conditions: in vitro
dopaminergic receptors = conditions: in vitro
[1] = in vivo
cholinergic receptors = conditions: in vitro
histaminergic receptors = conditions: in vitro

CNCC[C@H](Oc1cccc2ccccc12)c1cccs1 [Duloxetine, (S)-N-methyl-3-(1-naphthyloxy)-3-(2-thienyl) propan-1-amine]
dosage hydrolyzed to 1-naphthol (pH 1.0, within one hour): 50%
dosage degraded to 1-Naphthol (pH 2.0, in one hour): 10%
time for 10% degradation (pH 4.0): up to 63 hours
affinity for adrenergic receptors (adrenergic receptors): no significant affinity
affinity for dopaminergic receptors (dopaminergic receptors): no significant affinity
mean plasma elimination half-life [1]: 12.1 h
affinity for cholinergic receptors (cholinergic receptors): no significant affinity
inhibition of monoamine oxidase (MAO) (monoamine oxidase (MAO)): does not inhibit
affinity for histaminergic receptors (histaminergic receptors): no significant affinity
